Data as given in patent US9526795B2, “N-BOC-dendrimers and their conjugates” (Annam Biosciences, LLC, priority 2012, dated 2016).

Tested on: ovarian cancer cell lines
Assay: doxorubicin-dendrimer-folate uptake in ovarian cancer cells
Type: cell-based
Settings: FIG. 8; compared with doxorubicin and doxorubicin-(folate)1; folate-quenching correction
Description: Ovarian cancer cells were purchased from ATCC (CRL-6322, ATCC American Type Culture Collection, Rockville, Md.) and were grown in Dulbecco's modified Eagle's medium (DMEM) with 10% fetal bovine serum and 100 units/mL penicillin. The cells were grown at 37° C. in 5% CO2 environment. The culture medium was removed and discarded. The cells were rinsed with Dulbecco Phosphate Buffer Solution (DPBS), Trypsin-ethylenediaminetetra-acetic acid (EDTA) solution (0.5 ml) was added, and the cells were observed under an inverted microscope to make sure that they were dispersed. Complete growth medium (6.0 to 8.0 ml) was added, and the cells were aspirated by gently pipetting. The cell suspension in appropriate aliquots was transferred to new culture plates. The cells were allowed to grow at 37° C. in 5% CO2 for 24 hours before further experiments. […]
The evaluation of doxorubicin-dendrimer-folate uptake is conducted by using a literature procedure (Kim D, Lee E S, Oh K T, Gao Z G, Bae Y H. Doxorubicin-loaded polymeric micelle overcomes multidrug resistance of cancer by double-targeting folate receptor and early endosomal pH. Small. 2008 November; 4(11):2043-50) and folate-quenching correction was adjusted based on a literature procedure (Husseini G. A., 2012. Folic Acid Quenches Doxorubicin Fluorescence. Advanced Science Letters. 7:726).

For `COc1cccc2c1C(=O)c1c(O)c3c(c(O)c1C2=O)C[C@@](O)(/C(CO)=N/NC(=O)CCCC(=O)NCCCOCCOCCOCCCN(CCC(=O)NCCNC(=O)CCC(NC(=O)c1ccc(NCc2cnc4c(=O)[nH]c(N)nc4n2)cc1)C(=O)O)CCC(=O)NCCNC(=O)CCC(NC(=O)c1ccc(NCc2cnc4c(=O)[nH]c(N)nc4n2)cc1)C(=O)O)C[C@H]3O[C@H]1C[C@@H](N)[C@@H](O)[C@@H](C)O1` (stereo partly shown) [doxorubicin-dendrimer-(folate)2, doxorubicin-hydrazine-glutaric acid-PEG3-dendrimer-2-folates], the “uptake by ovarian cancer cell lines” value was “superior uptake”.
